We go through 22 compounds from patent US8513238B2 (Hoffmann-La Roche Inc., priority 2010, dated 2013).

Molecules are shown by their SMILES. Structures can show the parent of a compound that is named as a salt.

The target in this test is T1, human V1a receptor (Homo sapiens, UniProt P37288).
T1 construct: expressed in transfected cells; host or cells: HEK293 cells, transiently transfected; membranes prepared
T1 sequence (P37288 whole entry): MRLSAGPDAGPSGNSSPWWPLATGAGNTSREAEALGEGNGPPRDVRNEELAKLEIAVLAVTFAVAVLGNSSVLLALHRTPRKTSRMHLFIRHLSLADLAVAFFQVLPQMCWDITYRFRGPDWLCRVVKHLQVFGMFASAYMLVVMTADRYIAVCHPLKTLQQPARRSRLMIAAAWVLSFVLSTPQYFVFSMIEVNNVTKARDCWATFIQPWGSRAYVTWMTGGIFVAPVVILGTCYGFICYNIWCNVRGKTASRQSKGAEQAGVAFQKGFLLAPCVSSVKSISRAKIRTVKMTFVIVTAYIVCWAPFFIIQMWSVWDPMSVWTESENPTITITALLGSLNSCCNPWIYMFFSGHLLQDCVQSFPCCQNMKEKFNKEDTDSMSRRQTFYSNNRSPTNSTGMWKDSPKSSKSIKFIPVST
Briefly: human V1a receptor binding (3H-Vasopressin SPA, HEK293 membranes). The note with it: membranes of HEK293 cells transiently transfected with human V1a receptor, Ki by Cheng-Prussoff, read-out: pKi (hV1a) (converted). On the procedure: The human V1a receptor was cloned by RT-PCR from total human liver RNA. The coding sequence was subcloned in an expression vector after sequencing to confirm the identity of the amplified sequence. […] Cell membranes were prepared from HEK293 cells transiently transfected with the expression vector and grown in 20 liter fermenters with the following protocol.
50 g of cells are resuspended in 30 ml freshly prepared ice cold Lysis buffer (50 mM HEPES, 1 mM EDTA, 10 mM magnesium dichloride adjusted to pH=7.4+complete cocktail of protease inhibitor (Roche Diagnostics)). Homogenized with Polytron for 1 min and sonicated on ice for 2×2 minutes at 80% intensity (Vibracell sonicator). The preparation is centrifuged 20 min at 500 g at 4° C., the pellet is discarded and the supernatant centrifuged 1 hour at 43,000 g at 4° C. (19,000 rpm). The pellet is resuspended in 12.5 ml Lysis buffer+12.5 ml sucrose 20% and homogenized using a Polytron for 1-2 min. The protein concentration is determined by the Bradford method and aliquots are stored at −80° C. until use. For binding studies 60 mg Yttrium silicate SPA beads (Amersham®) are mixed with an aliquot of membrane in binding buffer (50 mM Tris, 120 mM sodium chloride, 5 mM potassium chloride, 2 mM calcium dichloride, 10 mM magnesium dichloride) for 15 minutes with mixing. 50 μl of bead/membrane mixture is then added to each well of a 96 well plate, followed by 50 μl of 4 nM 3H-Vasopressin (American Radiolabeled Chemicals). For total binding measurement 100 μl of binding buffer are added to the respective wells, for non-specific binding 100 μl of 8.4 mM cold vasopressin and for compound testing 100 μl of a serial dilution of each compound in 2% dimethyl sulfoxide. The plate is incubated 1 h at room temperature, centrifuged 1 min at 1000 g and counted on a Packard Top-Count. Non-specific binding counts are subtracted from each well and data is normalized to the maximum specific binding set at 100%. To calculate an IC50 the curve is fitted using a non-linear regression model (XLfit) and the Ki is calculated using the Cheng-Prussoff equation.
As for `Cc1cc(C)n([C@H]2CC[C@H](c3nnc4n3-c3ccc(Cl)cc3CNC4)CC2)n1` [Example 116, trans-8-Chloro-1-[4-(3,5-dimethyl-pyrazol-1-yl)-cyclohexyl]-5,6-dihydro-4H-2,3,5,10b-tetraaza-benzo[e]azulene], the Ki was 72.4 nM.

Take `Cc1nc([C@H]2CC[C@H](c3nnc4n3-c3ccc(Cl)cc3CN(C(=O)OC(C)(C)C)C4)CC2)oc1Cl` [Example 98, trans-8-Chloro-1-[4-(5-chloro-4-methyl-oxazol-2-yl)-cyclohexyl]-4H,6H-2,3,5,10b-tetraaza-benzo[e]azulene-5-carboxylic acid tert-butyl ester]: the Ki is 1.1 nM. To `Cc1cc(C)n([C@H]2CC[C@H](c3nnc4n3-c3ccc(Cl)cc3CN(C(=O)OC(C)(C)C)C4)CC2)n1` [Example 115, trans-8-Chloro-1-[4-(3,5-dimethyl-pyrazol-1-yl)-cyclohexyl]-4H,6H-2,3,5,10b-tetraaza-benzo[e]azulene-5-carboxylic acid tert-butyl ester] belongs 0.17 nM; to `COCCN1Cc2cc(Cl)ccc2-n2c(nnc2[C@H]2CC[C@H](c3cc(C)on3)CC2)C1` [Example 29, trans-8-Chloro-5-(2-methoxy-ethyl)-1-[4-(5-methyl-isoxazol-3-yl)-cyclohexyl]-5,6-dihydro-4H-2,3,5,10b-tetraaza-benzo[e]azulene], 1.58 nM. To `Cc1onc([C@H]2CC[C@H](c3nnc4n3-c3ccc(Cl)cc3CNC4)CC2)c1Cl` [Example 43, trans-8-Chloro-1-[4-(4-chloro-5-methyl-isoxazol-3-yl)-cyclohexyl]-5,6-dihydro-4H-2,3,5,10b-tetraaza-benzo[e]azulene] belongs 5.89 nM; to `CCc1cc([C@H]2CC[C@@H](c3nnc4n3-c3ccc(Cl)cc3CN(C)C4)CC2)no1` [Example 51, cis-8-Chloro-1-[4-(5-ethyl-isoxazol-3-yl)-cyclohexyl]-5-methyl-5,6-dihydro-4H-2,3,5,10b-tetraaza-benzo[e]azulene], 15.5 nM. To `CN1Cc2cc(Cl)ccc2-n2c(nnc2[C@H]2CC[C@@H](n3cccn3)CC2)C1` [Example 114, cis-8-Chloro-5-methyl-1-(4-pyrazol-1-yl-cyclohexyl)-5,6-dihydro-4H-2,3,5,10b-tetraaza-benzo[e]azulene] belongs 794 nM; to `CC(C)c1nc([C@H]2CC[C@H](c3nnc4n3-c3ccc(Cl)cc3CNC4)CC2)no1` [Example 93, trans-8-Chloro-1-[4-(5-isopropyl-[1,2,4]oxadiazol-3-yl)-cyclohexyl]-5,6-dihydro-4H-2,3,5,10b-tetraaza-benzo[e]azulene hydrochloride], 263 nM. Turning to `CN1Cc2cc(Cl)ccc2-n2c(nnc2[C@H]2CC[C@H](c3onc4c3CCCC4)CC2)C1` [Example 62, trans-8-Chloro-5-methyl-1-[4-(4,5,6,7-tetrahydro-benzo[c]isoxazol-3-yl)-cyclohexyl]-5,6-dihydro-4H-2,3,5,10b-tetraaza-benzo[e]azulene], the Ki is 6.31 nM. To `Cc1cc([C@H]2CC[C@H](c3nnc4n3-c3ccc(Cl)cc3CN(S(C)(=O)=O)C4)CC2)no1` [Example 34, trans-8-Chloro-5-methanesulfonyl-1-[4-(5-methyl-isoxazol-3-yl)-cyclohexyl]-5,6-dihydro-4H-2,3,5,10b-tetraaza-benzo[e]azulene] belongs 0.275 nM; to `CCc1cc([C@H]2CC[C@H](c3nnc4n3-c3ccc(Cl)cc3CN(C)C4)CC2)no1` [Example 53, trans-8-Chloro-1-[4-(5-ethyl-isoxazol-3-yl)-cyclohexyl]-5-methyl-5,6-dihydro-4H-2,3,5,10b-tetraaza-benzo[e]azulene], 1.2 nM; to `Cc1cc([C@H]2CC[C@H](c3nnc4n3-c3ccc(Cl)cc3CNC4)CC2)no1` [Example 23, trans-8-Chloro-1-[4-(5-methyl-isoxazol-3-yl)-cyclohexyl]-5,6-dihydro-4H-2,3,5,10b-tetraaza-benzo[e]azulene hydrochloride], 6.46 nM. In the case of `Cc1nc([C@H]2CC[C@H](c3nnc4n3-c3ccc(Cl)cc3CNC4)CC2)oc1C` [Example 11, trans-8-Chloro-1-[4-(4,5-dimethyl-oxazol-2-yl)-cyclohexyl]-5,6-dihydro-4H-2,3,5,10b-tetraaza-benzo[e]azulene] it was 5.5 nM; in that of `Cc1cc([C@H]2CC[C@H](c3nnc4n3-c3ccc(Cl)cc3CN(C)C4)CC2)no1` [Example 24, trans-8-Chloro-1-[4-(5-methyl-isoxazol-3-yl)-cyclohexyl]-5-methyl-5,6-dihydro-4H-2,3,5,10b-tetraaza-benzo[e]azulene], 1.2 nM.

As to `Cc1nsc([C@H]2CC[C@H](c3nnc4n3-c3ccc(Cl)cc3CN(C)C4)CC2)n1` [Example 71, trans-8-Chloro-5-methyl-1-[4-(3-methyl-[1,2,4]thiadiazol-5-yl)-cyclohexyl]-5,6-dihydro-4H-2,3,5,10b-tetraaza-benzo[e]azulene], the Ki is 15.1 nM. Consider `CC(C)(C)OC(=O)N1Cc2cc(Cl)ccc2-n2c(nnc2[C@H]2CC[C@H](c3noc4c3CCCC4)CC2)C1` [Example 54, trans-8-Chloro-1-[4-(4,5,6,7-tetrahydro-benzo[d]isoxazol-3-yl)-cyclohexyl]-4H,6H-2,3,5,10b-tetraaza-benzo[e]azulene-5-carboxylic acid tert-butyl ester], for which the Ki was 9.55 nM. To `CN1Cc2cc(Cl)ccc2-n2c(nnc2[C@H]2CC[C@H](c3nccs3)CC2)C1` [Example 15, trans-8-Chloro-5-methyl-1-(4-thiazol-2-yl-cyclohexyl)-5,6-dihydro-4H-2,3,5,10b-tetraaza-benzo[e]azulene] belongs 3.31 nM.

`CN1Cc2cc(Cl)ccc2-n2c(nnc2[C@H]2CC[C@H](c3ncco3)CC2)C1` [Example 3, trans-8-Chloro-5-methyl-1-(4-oxazol-2-yl-cyclohexyl)-5,6-dihydro-4H-2,3,5,10b-tetraaza-benzo[e]azulene]: the Ki was 10.5 nM. In the case of `Cc1nc([C@H]2CC[C@H](c3nnc4n3-c3ccc(Cl)cc3CNC4)CC2)sc1C` [Example 105, trans-8-Chloro-1-[4-(4,5-dimethyl-thiazol-2-yl)-cyclohexyl]-5,6-dihydro-4H-2,3,5,10b-tetraaza-benzo[e]azulene] it was 21.9 nM. On to `Cc1cc([C@H]2CC[C@H](c3nnc4n3-c3ccc(Cl)cc3CN(S(=O)(=O)N(C)C)C4)CC2)no1` [Example 35, trans-8-Chloro-1-[4-(5-methyl-isoxazol-3-yl)-cyclohexyl]-4H,6H-2,3,5,10b-tetraaza-benzo[e]azulene-5-sulfonic acid dimethylamide], for which the Ki was 0.501 nM. In the case of `Cc1nc([C@H]2CC[C@H](c3nnc4n3-c3ccc(Cl)cc3CN(C(=O)OC(C)(C)C)C4)CC2)sc1Cl` [Example 101, trans-8-Chloro-1-[4-(5-chloro-4-methyl-thiazol-2-yl)-cyclohexyl]-4H,6H-2,3,5,10b-tetraaza-benzo[e]azulene-5-carboxylic acid tert-butyl ester] it was 1.29 nM; in that of `Cc1cc([C@H]2CC[C@H](c3nnc4n3-c3ccc(Cl)cc3CN(C(=O)CN(C)C)C4)CC2)no1` [Example 33, trans-1-{8-Chloro-1-[4-(5-methyl-isoxazol-3-yl)-cyclohexyl]-4H,6H-2,3,5,10b-tetraaza-benzo[e]azulen-5-yl}-2-dimethylamino-ethanone hydroformate], 2 nM.
